Measured values from patent US9809586B2, “Inhibitors of collagen prolyl 4-hydroxylase” (WISCONSIN ALUMNI RESEARCH FOUNDATION, priority 2015, dated 2017).
Blank lines part the entries; values can stand above or below the molecule they belong to.

Tests used:
[1] = target: T1, human CP4H1 (Homo sapiens, UniProt P13674); test: Assay of human CP4H1 activity in the presence of inhibitors; assay type: biochemical; conditions: 10 μM compound, 50 μM FeSO4
T1 construct: made in house; host or cells: Origami B(DE3) Escherichia coli
Protocol: The catalytic activity of human CP4H1 was assayed as described previously.^35 Briefly, activity assays were carried out at 30° C. in 100 μL Tris-HCl buffer, pH 7.8, containing human CP4H1 (100 nM), inhibitor (0-500 μM), substrate (dansylGlyProProGlyOEt, 500 μM), FeSO4 (50 μM), BSA (1 mg/mL), catalase (0.1 mg/mL), sodium ascorbate (2 mM), DTT (100 μM), and α-ketoglutarate (100 μM). Reactions were pre-incubated with or without inhibitor for 2 min at 30° C., after which the reaction was initiated by the addition of α-ketoglutarate. After 15 min, reactions were quenched by boiling for 45 s and centrifuged at 10,000 g. The supernatant (20-50 μL) was injected into a Nucleodur® C18 Gravity reversed-phase column (4.6×250 mm, 5 μm particle size) from Macherey-Nagel (Bethlehem, Pa.). The column was eluted at 1 mL/min with a gradient (20 min) of aqueous acetonitrile (20-45% v/v) containing 0.1% v/v TFA. The absorbance of the eluent was monitored at 289 nm. All assays were performed in triplicate. Data are reported as activity relative to control reactions lacking inhibitor, where catalytic activity is determined from the percent conversion of substrate to product. Dose-response curves were generated for each inhibitor by plotting the relative activity versus the log of the inhibitor concentration. IC50-values for each inhibitor were interpolated from the data by non-linear regression using the sigmoidal dose-response function available in Prism.

[2] = system: HEK293T cells; test: Effect on iron metabolism (immunoblots for ferritin, TfR, HIF-1α) in HEK293T cells; assay type: cell-based, human; conditions: for Iron deficient phenotype: HEKs, 100 μM, details in Vasta et al. 2015; for Level of TFR, HIF-1α, or ferritin: HEK cells, diethyl pyimDC at low levels
Protocol: (§1) MDA-MB-231 or HEK293T cells were plated at 50,000 cells/well into 12-well plates and grown to confluence (˜24 h) as described in Section X. The cells were washed, and the medium was replaced with 1.0 mL of serum-free medium. Stock solutions of all test compounds were prepared at 100× in DMSO and added to a final concentration of 1× (0.1-0.5 mM). After addition of the test compound or DMSO vehicle, cells were incubated for 24 h. The cells were then washed with 100 μL MPER solution from Thermo Fisher Scientific (Waltham, Mass.) and collected. Protein concentrations were determined by BCA assay (Thermo Fisher Scientific), and samples corresponding to 40 μg total protein were analyzed by immunoblot.
(§2) For all immunoblot analyses, protein samples where boiled in SDS-PAGE buffer, separated by electrophoresis through a Tris-glycine SDS-PAGE gel from Bio-Rad Laboratories (Hercules, Calif.), and subsequently transferred to a PVDF membrane for immunoblotting. All primary antibodies were used at the working dilution specified by the manufacturer. Primary antibodies were visualized using a complementary secondary antibody fused to horseradish peroxidase (HRP), with detection of HRP by chemiluminescence, imaging using an ImageQuant LAS 4000 (GE Healthcare), and quantification by densitometry (ImageJ software). The anti-rabbit antibody from Promega and the anti-mouse antibody from Abbiotec (San Diego, Calif.) were used at the working dilution specified by the manufacturer.
(§3) For investigations of iron metabolism, protein samples (40 μg) were separated by SDS-PAGE through a 12% w/v acrylamide gel, and blots were probed with primary antibodies to human ferritin (rabbit monoclonal) from Abcam (Cambridge, Mass.), human transferrin receptor (mouse monoclonal) from Invitrogen, human HIF-1α (mouse monoclonal) from BD Biosciences, and human β-actin (rabbit monoclonal) from Cell Signaling Technology (Danvers, Mass.). Quantifications were normalized to the signal from β-actin, after which treated samples were compared to vehicle-treated controls.

[3] = system: MDA-MB-231 breast cancer cells; test: Effect on iron metabolism (immunoblots for ferritin, TfR, HIF-1α) in MDA-MB-231 cells; conditions: for Iron deficient phenotype: MDA-MB-231 (231s), 100 μM, details in Vasta et al. 2015; for Concentration at which no iron-deficient phenotype is observed / Iron-deficiency phenotype of treated cells: MDA-MB-231, 24 h; for Iron-deficiency phenotype of treated cells: EDHB 500 μM, diethyl pythiDC up to 500 μM
Protocol: as §1, §2, §3

[4] = system: MDA-MB-231 cells; test: Cytotoxicity assay (MTS); assay type: cell-based; conditions: MDA-MB-231, 24 h; higher than aqueous solubility limit
Protocol: The toxicity of esterified biheteroaryl compounds for human breast cancer cells was evaluated with the CellTiter 96® AQueous One Solution Cell Proliferation Assay (MTS) from Promega (Madison, Wis.). Briefly, MDA-MB-231 cells grown as described in Section X were plated at a concentration of 5,000 cells/well in a clear 96-well plate. The cells were allowed to adhere for 4 h, after which the medium was removed and discarded. Fresh medium was added and the cells were treated with varying concentrations of the test compound at 37° C. for 24 h. The medium was removed, and cells were washed with Dulbecco's PBS. The MTS reagent was added at a ratio of 1:5, and the cells were incubated at 37° C. for 2 h before measuring the absorbance at 490 nm. The average absorbance was measured in triplicate for each concentration tested, and the entire experiment was repeated in duplicate. The percentage of viable cells was determined by normalizing to a PBS control (100% viable), and a H2O2 control (0% viable). For all of the compounds tested, the LD50-value could not be measured due to its being higher than the aqueous solubility limit: diethyl bipy55′DC, LD50>100 μM; diethyl pyimDC, LD50>1000 μM; diethyl pythiDC, LD50>500 μM.

[5] = system: MDA-MB-231 cells; test: Effect on secretion of type I collagen into conditioned media; assay type: cell-based, human; conditions: for Efficacy on collagen secretion compared with diethyl bipy55′DC: MDA-MB-231; for Level of secreted type I collagen: MDA-MB-231, 48 h, conditioned media
Protocol: For investigations of collagen secretion, protein samples were separated by SDS-PAGE through a 7.5% w/v acrylamide gel. Blots were first stained for total protein using Ponceau S, after which they were probed with a primary antibody to human type-I collagen (α1) (rabbit polyclonal) from Novus Biologicals (Littleton, Colo.).
After the addition of a test compound or vehicle (DMSO), cells were incubated for 48 h, after which 1.0 mL of conditioned medium was removed and added to 4.0 mL of chilled acetone (−20° C.). The resultant mixtures were incubated for 3 h at −20° C., after which the precipitated protein was pelleted by centrifugation at 10,000 g for 30 min. The supernatants were discarded and the pellets dried briefly in a fume hood. Pellets were stored at −20° C. prior to analysis with an immunoblot.

[6] = system: P4HA1; test: Effect on P4HA1 levels (immunoblot); assay type: cell-based, human; conditions: MDA-MB-231
Protocol: For investigations of P4HA1 levels, protein samples were treated and quantified as described above for iron metabolism except that the blots were probed with primary antibodies to human P4HA1 (rabbit polyclonal) from Thermo Fisher Scientific and human β-actin.

[7] = Assay of Fe(II)-affinity for biheteroaryl ligands (Fe20-EC50 titration, spectrophotometry); assay type: physicochemical
Protocol: A library of biheteroaryl compounds (FIG. 2) was prepared and evaluated them as iron chelators in vitro. The library was assembled either from commercial vendors (pypyr and pyim) or by synthesis using palladium-catalyzed cross-coupling reactions (pypyraz, pypyrid, pyox, and pythi). To evaluate the iron affinity of these compounds in vitro, titration experiments were performed to determine the half-maximal concentration required to form a complex with 20 μM Fe(II) at pH 7.0.
The affinity of biheteroaryl ligands for Fe(II) was determined comparatively by measuring the half-maximal concentration (EC50) required for binding 20 μM Fe(II) (Fe20-EC50) in sodium phosphate buffer at pH 7. Stock solutions of ligands were prepared in either water for high affinity ligands (typically Fe20-EC50<1 mM) or DMSO for low affinity ligands (typically Fe20-EC50>1000 μM). Stock solutions of FeSO4 were prepared in H2O and used within 3 hours of preparation. […] For high affinity ligands, solutions were allowed to equilibrate for 15 min, after which the absorbance was recorded at the λmax for the complex under study. For most low affinity ligands, the corresponding Fe(II) complexes were unstable and observed to dissociate over time. Therefore, the absorbance value was determined within 30 s of mixing, where the absorbance was measured at the λmax for the complex under study. Complexes with pyox were not observed under these conditions. Absorbance values were corrected by subtracting the absorbance value in the absence of ligand. Dose-response curves were generated for each ligand by plotting the absorbance versus the log of the ligand concentration. Fe20-EC50 values for each ligand were interpolated from the dose-response curves by non-linear regression using the sigmoidal dose-response function in Prism. All experiments were performed in triplicate.

[8] = system: IRPs; test: Electrophoretic mobility shift assay for IRE-binding by IRPs from treated cells; assay type: cell-based, human; conditions: treated MDA-MB-231 cells, 24 h, radiolabeled RNA ligand
Protocol: The resultant pellets (˜50 μL) were washed with PBS and then lysed using a protocol described previously.^41 Briefly, cell pellets were resuspended in 200 μL of cell lysis buffer, which was 20 mM Hepes-HCl buffer, pH 7.4, containing sodium pyrophosphate (10 mM), sodium fluoride (50 mM), β-glycerophosphate (50 mM), EDTA (5 mM), GTP (1 mM), sodium orthovanadate (1 mM), benzamidine hydrochloride (2 mM), Nonidet NP-40 (0.5% v/v), p-nitrophenyl p′-guanidinobenzoate-HCl (25 μg/mL), DTT (1 mM), leupeptin (40 μg/mL), pepstatin (4 μg/mL), SBTI (100 μg/mL), MG132 (10 μM), PMSF (200 μM), and BHT (5 μg/mL) by vortexing and lysed on ice by vortexing every few min. After 15 min, the lysates were centrifuged at 14,000 rpm and the supernatants aliquoted and stored at −80° C. until analysis by an electrophoretic mobility shift assay (EMSA).
EMSAs were performed and quantified essentially as described previously.^42 Briefly [^32P]-L-ferritin IRE (1 nM RNA, specific radioactivity ˜7,000 dpm/fmol) was incubated with lysate protein (2.5 μg as determined by the Bradford assay) in binding buffer for 10 min on ice. Heparin was added (to 0.5 mg/mL), and the reaction mixture was incubated for an additional 5 min on ice before separating bound and free RNA on a nondenaturing polyacrylamide gel at ambient temperature.

[9] = conjugate acid of pyridine (bipy) or the nonpyridyl ring; cited from earlier work
[10] = Estimate of pKa by potentiometric titration; assay type: physicochemical; conditions: water; conjugate acid, estimated by titration of the entire compound
Protocol: The pKa value of biheteroaryl compounds was estimated with potentiometric titration. Compounds (5-10 mM) were dissolved in water and the pH was adjusted to ˜12 by adding 10 M NaOH. The pH of the solution was recorded with an Accumet™ XL500 pH meter equipped with an Orion 912600® pH electrode from Thermo Fisher Scientific while titrating the solution with HCl (1 M or […], as necessary) until a pH value of ˜1.75 was achieved. Titration curves were prepared by plotting the solution pH versus the volume of 1 M HCl added, and pKa values were estimated from derivative plots of the titration curves using Prism software.

[11] = titration of 20 μM FeSO4, pH 7, mean (±SE) of three replicates

T1 sequence (P13674 18-534): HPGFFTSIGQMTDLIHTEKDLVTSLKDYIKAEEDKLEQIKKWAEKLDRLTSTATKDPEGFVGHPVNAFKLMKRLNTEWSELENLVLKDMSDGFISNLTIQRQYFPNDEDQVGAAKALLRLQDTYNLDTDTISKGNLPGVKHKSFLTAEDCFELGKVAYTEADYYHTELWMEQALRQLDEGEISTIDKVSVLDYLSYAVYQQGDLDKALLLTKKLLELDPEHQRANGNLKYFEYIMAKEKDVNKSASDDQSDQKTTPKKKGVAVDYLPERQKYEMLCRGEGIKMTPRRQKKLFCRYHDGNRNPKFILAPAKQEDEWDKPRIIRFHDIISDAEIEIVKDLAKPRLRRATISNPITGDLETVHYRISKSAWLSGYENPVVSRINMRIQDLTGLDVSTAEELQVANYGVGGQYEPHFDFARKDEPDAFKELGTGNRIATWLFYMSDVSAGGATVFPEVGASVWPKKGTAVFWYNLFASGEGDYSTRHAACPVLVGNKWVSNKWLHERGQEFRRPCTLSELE
T1 sequence (P07237 18-508 partner): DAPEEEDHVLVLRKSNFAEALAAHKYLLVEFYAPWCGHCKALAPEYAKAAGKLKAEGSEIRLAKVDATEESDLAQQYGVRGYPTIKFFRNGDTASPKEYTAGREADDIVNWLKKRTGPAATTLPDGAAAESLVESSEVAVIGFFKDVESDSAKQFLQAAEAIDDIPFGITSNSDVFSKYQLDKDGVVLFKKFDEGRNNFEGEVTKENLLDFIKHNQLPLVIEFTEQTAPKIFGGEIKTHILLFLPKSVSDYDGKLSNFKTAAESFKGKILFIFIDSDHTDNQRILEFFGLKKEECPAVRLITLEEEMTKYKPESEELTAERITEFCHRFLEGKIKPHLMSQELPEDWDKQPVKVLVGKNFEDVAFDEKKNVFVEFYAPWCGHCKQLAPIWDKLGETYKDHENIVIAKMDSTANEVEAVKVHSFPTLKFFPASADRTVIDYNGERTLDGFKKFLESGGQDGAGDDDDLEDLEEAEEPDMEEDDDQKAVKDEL

Inhibition of catalytic activity of human CP4H1 in initial screen [1]: potency is less than that of pyimDC
Compound: Cn1c(C(=O)O)cnc1-c1ccc(C(=O)O)cn1 [NMe-pyimDC, 2-(5-Carboxy-1-methyl-1H-imidazol-2-yl)pyridine-5-carboxylic Acid]

Iron deficient phenotype [2]: distinct iron deficient phenotype | Iron deficient phenotype [3]: distinct iron deficient phenotype
Compound: CCOC(=O)c1ccnc(-c2cc(C(=O)OCC)ccn2)c1 [diethyl bipy44′DC, reference compound]

Iron deficient phenotype [2]: did not cause iron deficiency | Iron deficient phenotype [3]: did not cause iron deficiency
Compound: CCOC(=O)c1ccc(-c2cc(C(=O)OCC)ccn2)nc1 [diethyl bipy45′DC, Diethyl 2,2′-bipyridine-4,5′-dicarboxylate, reference compound]

Compound: CCOC(=O)c1ccc(-c2ccc(C(=O)OCC)cn2)nc1 [diethyl bipy55′DC, Diethyl 2,2′-bipyridine-5,5′-dicarboxylate, reference compound]
Iron deficient phenotype [2]: did not cause iron deficiency | LD50 [4]: > 100 µM | Iron deficient phenotype [3]: did not cause iron deficiency

Compound: CCOC(=O)c1ccc(-c2ncc(C(=O)OCC)[nH]2)nc1 [diethyl pyimDC, Ethyl 2-(5-ethoxycarbonyl-1H-imidazol-2-yl)pyridine-5-carboxylate]
Efficacy on collagen secretion compared with diethyl bipy55′DC [5]: indistinguishable | Level of secreted type I collagen [5]: reduced the level of secreted collagen significantly | Levels of human CP4H1 (P4HA1) itself [6]: did not appear to affect | EC50 ([7]; Fe(II) 20 μM, highest concentration tested, not saturated): > 600 µM | Level of TFR, HIF-1α, or ferritin [2]: did not affect | LD50 [4]: > 1000 µM | RNA binding by IRPs [8]: did not | Accumulation of TFR or HIF-1α ([3]; MDA-MB-231): without an associated accumulation | Concentration at which no iron-deficient phenotype is observed [3]: ≤ 56 µM | Iron-deficiency phenotype of treated cells [3]: intermediate phenotype | Ferritin levels ([3]; MDA-MB-231, above 56 μM): significant decrease

Compound: CCOC(=O)c1ccc(-c2ncc(C(=O)OCC)s2)nc1 [diethyl pythiDC, Ethyl 2-(5-ethoxycarbonylthiazol-2-yl)pyridine-5-carboxylate]
Efficacy on collagen secretion compared with diethyl bipy55′DC [5]: indistinguishable | Level of secreted type I collagen [5]: reduced the level of secreted collagen significantly | Levels of human CP4H1 (P4HA1) itself [6]: did not appear to affect | Level of TFR, HIF-1α, or ferritin [2]: did not affect | LD50 [4]: > 500 µM | RNA binding by IRPs [8]: did not | Concentration at which no iron-deficient phenotype is observed [3]: ≤ 500 µM | Iron-deficiency phenotype of treated cells [3]: normal

EC50 [7, 11]: 900 ± 30 µM | Level of TFR, HIF-1α, or ferritin [2]: did not affect | pKa [10]: 5.4
Compound: c1ccc(-c2ncc[nH]2)nc1 [pyim, 2-(1H-Imidazol-2-yl)pyridine, reference compound]
Heteroaryl pKa (ref.) [9]: 7.1 (51)

EC50 [7, 11]: > 18000 µM | pKa [10]: < 3
Compound: c1ccc(-c2ncco2)nc1 [pyox, 2-(Oxazol-2-yl)pyridine]
Heteroaryl pKa (ref.) [9]: 0.8 (54)

EC50 [7, 11]: 2250 ± 100 µM | pKa [10]: 4.1
Compound: c1ccc(-c2cc[nH]n2)nc1 [pypyr, 2-(1H-pyrazol-3-yl)pyridine, reference compound]
Heteroaryl pKa (ref.) [9]: 2.5 (52)

Inhibition of catalytic activity of human CP4H1 in initial screen [1]: modest activation
Compound: O=C(O)c1ccc(-c2cc(C(=O)O)[nH]n2)nc1 [pypyrDC, 2-(5-Carboxy-1H-pyrazol-3-yl)pyridine-5-carboxylic Acid]

EC50 [7, 11]: 400 ± 7 µM | pKa [10]: < 3
Compound: c1ccc(-c2cnccn2)nc1 [pypyraz, 2-(Pyridin-2-yl)pyrazine]
Heteroaryl pKa (ref.) [9]: 0.8 (50)

Inhibition of catalytic activity of human CP4H1 in initial screen [1]: modest activation
Compound: O=C(O)c1ccc(-c2ccc(C(=O)O)nn2)nc1 [pypyridDC, 6-(5-Carboxypyridin-2-yl)pyridazine-3-carboxylic Acid]

EC50 [7, 11]: 124 ± 1 µM | pKa [10]: < 3
Compound: c1ccc(-c2cccnn2)nc1 [pypyrid]
Heteroaryl pKa (ref.) [9]: 2.3 (49)

EC50 [7, 11]: 5100 ± 100 µM | Level of TFR, HIF-1α, or ferritin [2]: did not affect | pKa [10]: < 3
Compound: c1ccc(-c2nccs2)nc1 [pythi, 2-(Thiazol-2-yl)pyridine]
Heteroaryl pKa (ref.) [9]: 2.5 (53)
